# From patent publication US10772866B2 (UNIVERSITY-INDUSTRY COOPERATION GROUP OF KYUNG HEE …, priority 2013, dated 2020)
# Tested on: CA1 neuron region of hippocampal tissue
# Experiment: Crystal violet staining of CA1 neuron region of hippocampal tissue after transient global ischemia
# Type: in vivo, CD1 mice
# Conditions: mice after transient global ischemia; fluoxetine, vitamin C alone or together at trace amount; vs normal and negative control groups
# Text: Eight-week old adult male CD1 mice with a weight of 33 g to 37 g were induced to be anesthetized by injecting with 2% isoflurane under an air condition, in which nitrous oxide and oxygen were in a 70:30 ratio, and the mice were induced to have transient global ischemia according to the previous disclosure while the mice were maintained in the anesthetized state with 1% isoflurane (Kim, D. H. et. al, 2009. Food Chem. Toxicol. 47, 1473-1479.). The thus-prepared mice with transient global ischemia put into cages (4 mice/cage) were given ad libitum access to water and foods, and bred in an environment of a constant temperature (23±1° C.) and continuous humidity (60±10%) under a 12 hour light/dark cycle.
# Specifically, the brains obtained and stored by performing in the same manner as in <Example 6> were cut into 30 μm coronal plane sections, placed on gelatin-coated slides, stained with crystal violet, and dehydrated by adding 70%, 80%, 90%, and 100% alcohol in this order. Upon dehydration, xylene was added thereto, covered with coverslips, and the CA1 neuron region of hippocampal tissue was observed.
row,Compound,"recovery of hippocampal tissue injury (CA1 neuron region, preserved cells, FIGS. 7 and 8)"
1,CNCCC(Oc1ccc(C(F)(F)F)cc1)c1ccccc1 (centres unmarked) [fluoxetine],a recovery similar to that of the negative control group
2,"O=C1O[C@H]([C@@H](O)CO)C(O)=C1O [vitamin C, ascorbic acid]",a recovery similar to that of the negative control group
